Laboratory results from patent US7635696B2, “Isoxazoline-indole derivatives with an improved antipsychotic and anxiolytic activity” (Janssen Pharmaceutica N.V., priority 2004, dated 2009).
Like-named read-outs stand apart in the source and are kept apart here.

Tests used:
[1] = target: T1, human 5HT transporter (Homo sapiens, UniProt P31645); assay: Binding experiment for 5-HT transporter ([3H]Paroxetine); conditions: transfected HEK cell membranes, [3H]Paroxetine; for IC50: read-out: pIC50 5HTT (converted)
T1 construct: host or cells: HEK cells
T1 sequence (P31645 whole entry): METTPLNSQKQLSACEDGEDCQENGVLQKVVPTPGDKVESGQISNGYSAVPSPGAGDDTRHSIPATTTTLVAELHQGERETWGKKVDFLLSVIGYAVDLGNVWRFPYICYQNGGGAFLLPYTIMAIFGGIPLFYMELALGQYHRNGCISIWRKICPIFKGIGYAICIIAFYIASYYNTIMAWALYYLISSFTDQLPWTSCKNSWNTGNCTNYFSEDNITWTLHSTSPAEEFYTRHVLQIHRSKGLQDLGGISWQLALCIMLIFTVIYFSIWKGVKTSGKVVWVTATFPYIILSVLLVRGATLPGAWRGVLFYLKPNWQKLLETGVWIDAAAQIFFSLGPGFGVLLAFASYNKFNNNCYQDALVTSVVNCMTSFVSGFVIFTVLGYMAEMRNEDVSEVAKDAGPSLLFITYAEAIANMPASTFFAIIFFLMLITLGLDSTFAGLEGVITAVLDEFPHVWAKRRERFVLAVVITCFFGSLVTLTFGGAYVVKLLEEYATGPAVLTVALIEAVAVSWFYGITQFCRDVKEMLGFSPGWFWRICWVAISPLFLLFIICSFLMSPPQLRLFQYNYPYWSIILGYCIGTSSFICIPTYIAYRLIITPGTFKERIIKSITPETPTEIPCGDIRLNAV
Experimental: (§1) The interaction of the compounds of Formula (I) with dopamine-receptors, h5HT-transporter and h5HT1A receptor was assessed in in vitro radioligand binding experiments. In general, a low concentration of a radioligand with a high binding affinity for a particular receptor or transporter is incubated with a sample of a tissue preparation enriched in a particular receptor or transporter or with a preparation of cells expressing cloned human receptors in a buffered medium. During the incubation, the radioligand binds to the receptor or transporter. When equilibrium of binding is reached, the receptor bound radioactivity is separated from the non-bound radioactivity, and the receptor- or transporter-bound activity is counted. The interaction of the test compounds with the receptor is assessed in competition binding experiments. Various concentrations of the test compound are added to the incubation mixture containing the receptor- or transporter preparation and the radioligand. The test compound in proportion to its binding affinity and its concentration inhibits binding of the radioligand.
Frozen human 5HT transporter-transfected HEK cells (Perkin Elmer, Brussels) were thawed and briefly homogenised using an Ultra-Turrax T25 homogeniser prior to dilution to an appropriate protein concentration optimised for specific and non-specific binding. [^3H]Paroxetine (NEN, specific activity 20 Ci/mmol) was diluted in Tris-HCl assay buffer containing NaCl and KCl (50 mM, 120 mM and 5 mM, respectively; pH 7.4) at a concentration of 5 nmol/L. Prepared radioligand (25 μl) was then incubated (60 min, 25° C.) with membrane preparations (200 μl) and with 25 μl of either 10% DMSO control, Inipramine (10^−6 mol/L final concentration), or compound of interest. Membrane-bound activity was detected by filtration through a Packard Filtermate harvester onto Unifilterplates pre-soaked in 0.1% PEI, washing with ice-cold assay buffer (3×4 ml). Filters were dried prior to addition of scintillation fluid and then counting in a Topcount scintillation counter. % Specific bound and competition binding curves were calculated using S-Plus software (Insightful).

[2] = target: T2, Human Dopamine D2L receptor (Homo sapiens, UniProt P14416); assay: Binding experiment for dopamine D2 receptor ([3H]Spiperone); conditions: D2L-transfected CHO cell membranes; for IC50: read-out: pIC50 D2 (converted)
T2 construct: expressed in transfected cells; host or cells: CHO cells
T2 sequence (P14416 whole entry): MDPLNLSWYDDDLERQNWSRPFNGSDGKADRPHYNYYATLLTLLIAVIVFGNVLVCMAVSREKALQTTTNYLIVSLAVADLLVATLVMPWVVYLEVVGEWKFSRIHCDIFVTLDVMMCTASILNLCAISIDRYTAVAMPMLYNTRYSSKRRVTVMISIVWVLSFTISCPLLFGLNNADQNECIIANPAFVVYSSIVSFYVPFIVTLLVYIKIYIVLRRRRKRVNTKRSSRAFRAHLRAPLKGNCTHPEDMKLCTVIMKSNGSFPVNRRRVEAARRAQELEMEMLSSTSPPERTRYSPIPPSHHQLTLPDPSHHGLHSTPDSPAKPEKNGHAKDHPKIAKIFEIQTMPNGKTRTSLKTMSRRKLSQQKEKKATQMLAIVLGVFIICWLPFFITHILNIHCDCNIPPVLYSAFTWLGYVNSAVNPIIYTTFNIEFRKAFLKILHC
Experimental: as §1
Human Dopamine D2L receptor-transfected CHO cells were collected by scraping into ice-cold Tris-HCl buffer (50 mM, pH 7.4). The suspension was centrifuged (23 500×g, 10 min, 4° C.) and pellets stored at −70° C. until required. They were then thawed and briefly homogenised using an Ultra-Turrax T25 homogeniser prior to dilution to an appropriate protein concentration optimised for specific and non-specific binding. [^3H]Spiperone (NEN, specific activity ˜70 Ci/mmol) was diluted in Tris-HCl assay buffer containing NaCl, CaCl2, MgCl2, KCl (50, 120, 2, 1, and 5 mM respectively, adjusted to pH 7.7 with HCl) at a concentration of 2 nmol/L. Prepared radioligand (50 μl) was then incubated (30 min, 37° C.) with membrane preparations pre-diluted to an appropriate protein concentration (400 μl), and with 50 μl of either the 10% DMSO control, Butaclamol (10^−6 mol/L final concentration), or compound of interest. Membrane-bound activity was detected by filtration through a Packard Filtermate harvester onto Unifilterplates, washing with ice-cold Tris-HCl buffer (50 mM; pH8.0; 3×4 ml). Filters were allowed to dry before adding scintillation fluid and counting in a Topcount scintillation counter. % Specific bound and competition binding curves were calculated using S-Plus software (Insightful).

[3] = target: T3, Human 5HT1A receptor (Homo sapiens, UniProt P08908); assay: Binding experiment for 5-HT1A receptor ([3H]8OHDPAT)
T3 construct: expressed in transfected cells; host or cells: L929 cells (stably transfected)
T3 sequence (P08908 1-422): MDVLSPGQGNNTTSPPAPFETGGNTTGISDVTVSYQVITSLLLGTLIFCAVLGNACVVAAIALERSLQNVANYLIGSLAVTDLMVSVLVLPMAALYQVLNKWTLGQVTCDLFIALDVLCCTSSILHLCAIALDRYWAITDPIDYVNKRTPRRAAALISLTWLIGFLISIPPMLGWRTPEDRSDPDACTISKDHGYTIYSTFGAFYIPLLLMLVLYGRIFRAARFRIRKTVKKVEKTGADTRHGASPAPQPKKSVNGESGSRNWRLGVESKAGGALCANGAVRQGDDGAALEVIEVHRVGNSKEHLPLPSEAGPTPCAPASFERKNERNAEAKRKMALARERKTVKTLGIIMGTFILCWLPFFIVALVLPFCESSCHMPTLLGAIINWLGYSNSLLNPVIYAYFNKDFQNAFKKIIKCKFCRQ
Experimental: as §1
Human 5HT1A receptor-transfected L929 cells were collected by scraping into ice-cold Tris-HCl buffer (50 mM, pH 7.4). The suspension was centrifuged (23 500×g, 10 min, 4° C.) and pellets stored at −70° C. until required. They were then thawed and briefly homogenised using an Ultra-Turrax T25 homogeniser prior to dilution to an appropriate protein concentration optimised for specific and non-specific binding. [^3H]80HDPAT (NEN, specific activity 127 Ci/mmol) was diluted in Tris-HCl assay buffer containing CaCl2 (50 mM and 4 mM, respectively; pH 7.7) at a concentration of 5 nmol/L. Prepared radioligand (50 μl) was then incubated (30 min, 37° C.) with membrane preparations from L929 cells stably-transfected with the h5HT1A gene construct (400 μl) and with 50 μl of either the 10% DMSO control, spiroxatrine (10^−6 mol/L final concentration), or compound of interest. Membrane-bound activity was detected by filtration through a Packard Filtermate harvester onto Unifilterplates, washing with ice-cold Tris-HCl buffer (3×4 ml), followed by drying. Scintillation fluid was added and membranes were counted in a Topcount scintillation counter. % Specific bound and competition binding curves were calculated using S-Plus software (Insightful).

[4] = transfected L929 cell membranes, [3H]8OHDPAT
[5] = transfected L929 cell membranes, [3H]8OHDPAT, read-out: pIC50 5-HT1A (converted)

Row | IC50 [3, 5] [nM] | Structure (SMILES) | IC50 [1] [nM] | IC50 [2] [nM] | pIC50 5HTT [1] | pIC50 5-HT1A [3, 4] | pIC50 D2 [2] | IC50 [3] [nM]
1 |  | CC(=O)Nc1ccc2c(c1)OCC1C2=NOC1CN1CCC(c2c[nH]c3ccc(F)cc23)CC1 (stereo not drawn) [Compound 46] | 50.1 | 316 |  |  |  | 
2 |  | CCNC(=O)OCCOc1cc2c(cc1OC)C1=NOC(CN3CCC(c4c[nH]c5ccc(F)cc45)CC3)C1CO2 (racemic) [Compound 50] |  |  | 6.9 | 8.6 | 6.8 | 
3 |  | CCOC(=O)C(=O)Nc1ccc2[nH]cc(C3=CCN(CC4ON=C5c6cc(OC)c(OC)cc6OCC54)CC3)c2c1 (racemic) [Compound 42] |  |  | <5.5 | 8.2 | <5 | 
4 |  | COc1cc2c(cc1OC)C1=NOC(CN3CCC(c4c[nH]c5ccc(O)cc45)CC3)C1CO2 (racemic) [Compound 54] | 63.1 | 398 |  |  |  | 
5 |  | Fc1ccc2c(C3CCN(CC4ON=C5c6ccc(N7CCOCC7)cc6OCC54)CC3)c[nH]c2c1 (racemic) [Compound 52] |  |  | 7.4 | 7.5 | 7.5 | 
6 |  | COc1cc2c(cc1OC)C1=NOC(CN3CC=C(c4c[nH]c5ccc(NC(=O)Nc6ccccc6)cc45)CC3)C1CO2 (racemic) [Compound 38] |  |  | <5 | 8.4 | <5 | 
7 |  | CCOC(=O)CNC(=O)Nc1ccc2[nH]cc(C3=CCN(CC4ON=C5c6cc(OC)c(OC)cc6OCC54)CC3)c2c1 (racemic) [Compound 39] |  |  | <5 | 7.8 | <5 | 
8 |  | COc1cc2c(cc1OC)C1=NOC(CN3CCC(Cc4c[nH]c5ccc(F)cc45)CC3)C1CO2 (racemic) [Compound 57] |  |  | 8.3 | 6.4 | 6.3 | 
9 | 63.1 | COCCOCOc1ccc2[nH]cc(C3=CCN(CC4ON=C5c6cc(OC)c(OC)cc6OCC54)CC3)c2c1 (stereo not drawn) [Compound 62] | > 10000 | > 10000 |  |  |  | 
10 |  | Fc1ccc2[nH]cc(C3=CCN(CC4ON=C5c6ccc(N7CCOCC7)cc6OCC54)CC3)c2c1 (racemic) [Compound 55] |  |  | 7.5 | 7.8 | 6.3 | 
11 |  | Fc1ccc2[nH]cc(C3=CCN(CC4ON=C5c6ccc(NCCN7CCCC7)cc6OCC54)CC3)c2c1 (racemic) [Compound 56] |  |  | 8.1 | 8.1 | 6.8 | 
12 |  | COCC(=O)Nc1ccc2[nH]cc(C3=CCN(CC4ON=C5c6cc(OC)c(OC)cc6OCC54)CC3)c2c1 (racemic) [Compound 41] |  |  | <5 | 8.3 | <5 | 
13 |  | COc1cc2c(cc1OC)C1=NOC(CN3CCC(c4c[nH]c5ccc(Br)cc45)CC3)C1CO2 (racemic) [Compound 53] |  |  | 6.4 |  | 6.7 | 
14 |  | COCC(=O)OCCOc1cc2c(cc1OC)C1=NOC(CN3CCC(c4c[nH]c5ccc(F)cc45)CC3)C1CO2 (racemic) [Compound 49] |  |  | 6.9 |  | 6.7 | 
15 |  | Fc1ccc2c(C3CCN(CC4ON=C5c6ccc(NCCN7CCCC7)cc6OCC54)CC3)c[nH]c2c1 (racemic) [Compound 51] |  |  | 8.2 | 7.7 | 7.9 | 
16 |  | COc1cc2c(cc1OC)C1=NOC(CN3CC=C(c4c[nH]c5ccc(NS(C)(=O)=O)cc45)CC3)C1CO2.O=C(O)C(F)(F)F (racemic) [Compound 43] |  |  | <5 | 8.7 | 6.0 | 
17 |  | COc1cc2c(cc1OC)C1=NOC(CN3CCC(c4c[nH]c5cc(F)ccc45)CC3)C1CO2 (single isomer, unassigned) [Compound 35] |  |  | 7.3 | 6.4 | 6.9 | 
18 | 3.16 | COc1cc2c(cc1OC)C1=NOC(CN3CC=C(c4c[nH]c5ccc(NC(C)=O)cc45)CC3)C1CO2 (racemic) [Compound 40] | > 10000 | > 10000 |  |  |  | 
19 |  | COc1cc2c(cc1OC)C1=NO[C@@H](CN3CCC(n4ccc5ccccc54)CC3)[C@@H]1CO2 (racemic) [Compound 58] | 631 | 501 |  |  |  | 25.1
20 |  | COc1cc2c(cc1OC)C1=NOC(CN3CCC(c4c[nH]c5ccccc45)CC3)C1CO2.O=C(O)C(=O)O (single isomer, unassigned) [Compound 45] |  |  | 6.9 | 7.0 | 6.3 | 
21 |  | Nc1ccc2c(c1)OCC1C2=NOC1CN1CC=C(c2c[nH]c3ccc(F)cc23)CC1 (racemic) [Compound 61] |  |  | 6.9 | 7.3 |  | 
22 | 15.8 | COc1cc2c(cc1OC)C1=NOC(CN3CCC(c4coc5cc(F)ccc45)CC3)C1CO2 (stereo not drawn) [Compound 59] | 79.4 | 100 |  |  |  | 
23 |  | COCCOCOc1cc2c(cc1OC)C1=NOC(CN3CC=C(c4c[nH]c5ccc(F)cc45)CC3)C1CO2 (racemic) [Compound 63] |  |  | 7.6 | 6.0 | 7.9 | 
24 | 7.94 | CCNC(=O)Nc1ccc2[nH]cc(C3=CCN(CC4ON=C5c6cc(OC)c(OC)cc6OCC54)CC3)c2c1 (racemic) [Compound 37] | > 10000 | > 10000 |  |  |  | 
25 |  | COc1cc2c(cc1OCCO)OCC1C2=NOC1CN1CCC(c2c[nH]c3ccc(F)cc23)CC1 (racemic) [Compound 47] | 398 | 100 |  |  |  | 
26 |  | COc1cc2c(cc1OC)C1=NOC(CN3CCC(c4c[nH]c5cc(F)ccc45)CC3)C1CO2 (single isomer, unassigned) [Compound 36] |  |  | 6.8 | 8.0 | 7.5 | 

Row | Structure (SMILES) | IC50 [3, 5] [nM] | IC50 [1] [nM] | IC50 [2] [nM] | pIC50 5HTT [1] | pIC50 5-HT1A [3, 4] | pIC50 D2 [2] | IC50 [3] [nM]
27 | COc1ccc2[nH]cc(C3CCN(CC4ON=C5c6cc(OC)c(OC)cc6OCC54)CC3)c2c1 (racemic) [Compound 8] | 7.94 | 1260 | > 1000 |  |  |  | 
28 | COc1cc2c(cc1OC)C1=NOC(CN3CC=C(c4c[nH]c5ccc(N)cc45)CC3)C1CO2 (stereo not drawn) [Compound 33] | 12.6 | 631 | 1260 |  |  |  | 
29 | COc1cc2c(cc1OCCOC(C)=O)OCC1C2=NOC1CN1CCC(c2c[nH]c3ccc(F)cc23)CC1 (racemic) [Compound 48] | 1.58 | 79.4 | 158 |  |  |  | 
